Experimental data: ChEMBL document CHEMBL5550160, “Leveraging a rationally designed veliparib-based anilide eliciting anti-leukemic effects for the design of pH-responsive polymer nanoformulation” (Eur J Med Chem, 2024)

Legend:
[1] = test system: A549; assay: cells; type: functional, cell-based; conditions: Homo sapiens
Description: Antiproliferative activity against human A549 cells assessed as inhibition of cell growth by MTT assay

[2] = test system: PC-3; assay: cells; type: functional, cell-based; conditions: Homo sapiens
Description: Antiproliferative activity against human PC-3 cells assessed as inhibition of cell growth by MTT assay

[3] = test system: HL-60; assay: cells; conditions: Homo sapiens
Description: Antiproliferative activity against human HL-60 cells assessed as inhibition of cell growth by MTT assay

[4] = test system: HH; assay: cells; type: functional, cell-based; conditions: Homo sapiens
Description: Antiproliferative activity against human HH cells assessed as inhibition of cell growth by MTT assay

[5] = test system: MOLT-4; assay: cells; type: functional, cell-based; conditions: Homo sapiens
Description: Antiproliferative activity against human MOLT-4 cells assessed as inhibition of cell growth by MTT assay

[6] = test system: FaDu; assay: cells; type: functional, cell-based; conditions: Homo sapiens
Description: Antiproliferative activity against human FaDu cells assessed as inhibition of cell growth by MTT assay

[7] = test system: SiHa; assay: cells; type: functional, cell-based; conditions: Homo sapiens
Description: Antiproliferative activity against human SiHa cells assessed as inhibition of cell growth by MTT assay

[8] = test system: MDA-MB-231; assay: Antiproliferative activity against human MDA-MB-231 cells assessed as inhibition of cell growth by MTT assay; type: functional, cell-based
[9] = test system: K562; assay: cells; conditions: Homo sapiens
Description: Antiproliferative activity against human K562 cells assessed as inhibition of cell growth by MTT assay

[10] = target: Histone deacetylase 1 (Homo sapiens, UniProt Q13547); assay: Inhibition of HDAC1 (unknown origin) using p53 residues 379 to 382 [RHKK(Ac)] as fluorogenic substrate
Chain of Histone deacetylase 1 (Q13547 whole entry, the tested form may be a part): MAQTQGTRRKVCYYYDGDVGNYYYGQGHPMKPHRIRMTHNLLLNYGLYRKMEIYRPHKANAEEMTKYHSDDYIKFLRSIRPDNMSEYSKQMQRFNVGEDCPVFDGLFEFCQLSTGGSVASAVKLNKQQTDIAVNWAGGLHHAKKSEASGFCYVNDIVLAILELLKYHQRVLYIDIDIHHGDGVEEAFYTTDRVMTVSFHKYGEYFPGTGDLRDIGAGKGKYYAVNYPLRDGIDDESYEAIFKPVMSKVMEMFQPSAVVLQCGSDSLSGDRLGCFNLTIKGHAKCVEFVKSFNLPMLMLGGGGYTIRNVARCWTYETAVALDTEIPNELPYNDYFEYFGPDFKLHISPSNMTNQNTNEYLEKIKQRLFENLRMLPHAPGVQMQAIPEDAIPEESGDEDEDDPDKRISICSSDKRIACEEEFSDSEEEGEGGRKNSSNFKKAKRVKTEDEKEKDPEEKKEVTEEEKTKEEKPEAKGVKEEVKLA

[11] = target: Histone deacetylase 2 (Homo sapiens, UniProt Q92769); assay: Inhibition of HDAC2 (unknown origin)
Chain of Histone deacetylase 2 (Q92769 whole entry, the tested form may be a part): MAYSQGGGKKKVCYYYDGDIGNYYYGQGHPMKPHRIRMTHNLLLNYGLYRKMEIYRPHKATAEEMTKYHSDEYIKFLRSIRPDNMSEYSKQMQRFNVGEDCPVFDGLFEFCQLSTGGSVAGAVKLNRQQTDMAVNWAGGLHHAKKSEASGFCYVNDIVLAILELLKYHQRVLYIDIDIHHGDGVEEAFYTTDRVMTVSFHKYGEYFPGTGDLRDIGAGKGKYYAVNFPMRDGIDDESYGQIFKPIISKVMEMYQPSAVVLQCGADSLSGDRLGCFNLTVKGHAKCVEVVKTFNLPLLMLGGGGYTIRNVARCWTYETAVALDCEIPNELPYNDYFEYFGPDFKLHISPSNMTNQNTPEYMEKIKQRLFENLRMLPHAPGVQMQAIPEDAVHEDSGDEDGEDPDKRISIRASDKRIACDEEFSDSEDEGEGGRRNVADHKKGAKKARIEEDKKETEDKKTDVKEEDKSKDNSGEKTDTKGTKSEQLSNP

[12] = target: Histone deacetylase 3 (Homo sapiens, UniProt O15379); assay: Inhibition of HDAC3 (unknown origin) using p53 residues 379 to 382 [RHKK(Ac)] as fluorogenic substrate
Chain of Histone deacetylase 3 (O15379 whole entry, the tested form may be a part): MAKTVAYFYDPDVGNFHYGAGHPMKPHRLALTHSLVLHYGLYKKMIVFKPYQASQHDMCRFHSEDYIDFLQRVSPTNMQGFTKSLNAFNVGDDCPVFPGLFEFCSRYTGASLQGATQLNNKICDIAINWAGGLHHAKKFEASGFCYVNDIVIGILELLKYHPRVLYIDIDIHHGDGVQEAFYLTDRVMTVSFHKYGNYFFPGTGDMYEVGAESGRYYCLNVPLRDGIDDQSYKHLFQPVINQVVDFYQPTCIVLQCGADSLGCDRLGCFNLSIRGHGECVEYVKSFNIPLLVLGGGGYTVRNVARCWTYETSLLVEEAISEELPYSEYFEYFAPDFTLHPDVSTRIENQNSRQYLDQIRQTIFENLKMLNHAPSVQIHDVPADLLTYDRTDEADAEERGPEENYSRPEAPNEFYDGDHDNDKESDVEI

Compound	IC50 [1]	IC50 [2]	IC50 [3]	other results
NC(=O)c1cccc2[nH]c(-c3ccc(NC(=O)CCCCCCC(=O)Nc4ccccc4N)cc3)nc12	2.99 µM	3.45 µM	1.04 µM	
NC(=O)c1cccc2[nH]c(-c3ccc(NCc4ccc(/C=C/C(=O)Nc5ccccc5N)cc4)cc3)nc12	> 10 µM	> 10 µM	3.65 µM	
NC(=O)c1cccc2[nH]c(-c3ccc(NC(=O)CCCCCCCC(=O)Nc4ccccc4N)cc3)nc12	> 10 µM	> 10 µM	4.92 µM	
NC(=O)c1cccc2[nH]c(-c3ccc(NC(=O)CCCCCCC(=O)NO)cc3)nc12	2.11 µM	1.87 µM	3.21 µM	
C[C@]1(c2nc3c(C(N)=O)cccc3[nH]2)CCCN1 [VELIPARIB]	> 10 µM	> 10 µM	> 10 µM	IC50 [4]: > 10 µM; IC50 [5]: > 10 µM; IC50 [6]: > 10 µM; IC50 [7]: > 10 µM; IC50 [8]: > 10 µM; IC50 [9]: > 10 µM
NC(=O)c1cccc2[nH]c(-c3ccc(NC(=O)CCCC(=O)NO)cc3)nc12	> 10 µM	> 10 µM	> 10 µM	
NC(=O)c1cccc2[nH]c(-c3ccc(NC(=O)CCCCCC(=O)Nc4ccccc4N)cc3)nc12	4.32 µM	> 10 µM	2.43 µM	
NC(=O)c1cccc2[nH]c(-c3ccc(NC(=O)CCCCC(=O)NO)cc3)nc12	6.98 µM	2.44 µM	5.45 µM	
NC(=O)c1cccc2[nH]c(-c3ccc(NCc4ccc(C(=O)NO)cc4)cc3)nc12	2.31 µM	2.34 µM	1.23 µM	
NC(=O)c1cccc2[nH]c(-c3ccc(NC(=O)CCC(=O)NO)cc3)nc12	> 10 µM	> 10 µM	7.89 µM	
NC(=O)c1cccc2[nH]c(-c3ccc(NC(=O)CCCCCCCCC(=O)Nc4ccccc4N)cc3)nc12	> 10 µM	> 10 µM	7.96 µM	
NC(=O)c1cccc2[nH]c(-c3ccc(NC(=O)CCCCC(=O)Nc4ccccc4N)cc3)nc12	> 10 µM	4.76 µM	2.93 µM	
Nc1ccccc1NC(=O)c1ccc(CNC(=O)OCc2ccccc2)cc1	3.45 µM	5.21 µM	2.98 µM	IC50 [4]: 4.98 µM; IC50 [5]: 5.67 µM; IC50 [10]: 0.544 µM; IC50 [11]: 0.613 µM; IC50 [12]: 0.624 µM; IC50 [9]: 4.21 µM
NC(=O)c1cccc2[nH]c(-c3ccc(NC(=O)CCCCCCCC(=O)NO)cc3)nc12	> 10 µM	7.65 µM	> 10 µM	
NC(=O)c1cccc2[nH]c(-c3ccc(NCc4ccc(/C=C/C(=O)NO)cc4)cc3)nc12	2.03 µM	1.99 µM	5.99 µM	
NC(=O)c1cccc2[nH]c(-c3ccc(NC(=O)CCCCCCCCC(=O)NO)cc3)nc12	> 10 µM	8.91 µM	> 10 µM	
NC(=O)c1cccc2[nH]c(-c3ccc(NC(=O)CCCC(=O)Nc4ccccc4N)cc3)nc12	> 10 µM	> 10 µM	3.21 µM	
NC(=O)c1cccc2[nH]c(-c3ccc(NC(=O)CCCCCC(=O)NO)cc3)nc12	5.41 µM	2.32 µM	8.76 µM	
NC(=O)c1cccc2[nH]c(-c3ccc(NC(=O)CCC(=O)Nc4ccccc4N)cc3)nc12	> 10 µM	> 10 µM	3.75 µM	
